# Experiments:
# [1] = molecular target: T1, hPDE9A (Homo sapiens, UniProt O76083); experiment: PDE7 selectivity test (Ki value), Experimental Example 2: hPDE9A; format: biochemical; conditions: Ki from IC50 by Cheng-Prusoff, read-out: PDE inhibition constant Ki, PDE9
# T1 construct: made in house; host or cells: COS-7 cells
# Description: (§1) hPDE1A, hPDE2A, hPDE3A, hPDE4D, hPDE5A, and hPDE8B were purchased from SB Drug Discovery. hPDE7B was isolated by the same method as [Method for preparing samples 1], and hPDE9A, hPDE10A, and hPDE11A were isolated by the same method as hPDE7B, i.e., isolated from COS-7 cells transfected with plasmids encoding each PDE. PDE6 was purified and isolated from bovine retina (bovine PDE6).
# (§2) Prior to the calculation of Ki value, Km value of each PDE against cAMP or cGMP was calculated. Each PDE diluted with an assay buffer so that it would have an appropriate enzyme activity, and six or more concentrations of cAMP or cGMP were reacted at room temperature for 60 minutes. Regarding PDE using cAMP as a substrate, PDELight (trademark) HTS cAMP phosphodiesterase Kit (Lonza) was used to measure a degradation product, 5′-AMP. Also, regarding PDE using cGMP as a substrate, […] of perchloric acid was added to the mixture to stop the reaction, and the resulting mixture was subjected to LC-MS/MS to measure the residual cGMP concentration. The amount of degraded substrate in each substrate concentration was calculated, the concentration of the added substrate was plotted on the horizontal axis, the amount of degraded substrate was plotted on the vertical axis, and Km value was calculated by non-linear regression on the basis of Michaelis-Menten equation. Km value (substrate) of each PDE was hPDE1A: 4.3 (cGMP), hPDE2A: 36 (cAMP), hPDE3A: 0.11 (cAMP), hPDE4D: 0.90 (cAMP), hPDE5A: 3.9 (cGMP), bovine PDE6:9.8 (cGMP), hPDE7B: 0.015 (cAMP), hPDE8B: 0.63 (cAMP), hPDE9A: 0.0037 (cGMP), hPDE10A: 0.051 (cAMP), and hPDE11A: 1.4 (cAMP) μmol/L, respectively.
# (§3) Next, PDE inhibition assay of a compound was carried out using each PDE. The PDE inhibition assay was basically carried out by the same enzyme reaction method as [Assay procedure 1], and the degraded amount of cAMP or cGMP was measured by the same method as [Assay procedure 2]. In the assay, a concentration approximated to Km value of each PDE against cAMP or cGMP was used as a substrate concentration. Meanwhile, regarding hPDE5A, hPDE8B, and hPDE9A, IMAP (trademark) FP Phosphodiesterase Evaluation Assay Kit (Molecular Devices) was used to measure the degradation of FAM-cAMP or FAM-cGMP by fluorescence depolarization technique.
# (§4) Each compound was evaluated at six or more concentrations with common ratio 10. Each inhibition rate was calculated according to <Method for data calculation 1>, and then each IC50 value was calculated by sigmoid regression. The resulting IC50 value was used in the following Cheng-Prusoff equation to calculate each Ki value. Ki=IC50/(1+[S]/Km), wherein [S] represents a substrate concentration used
# [2] = molecular target: T2, bovine PDE6 (Bos taurus, UniProt P11541+P23439); experiment: PDE7 selectivity test (Ki value), Experimental Example 2: bovine PDE6; format: biochemical; conditions: Ki from IC50 by Cheng-Prusoff, read-out: PDE inhibition constant Ki, PDE6
# T2 construct: PDE6 was purified and isolated from bovine retina (bovine PDE6); from tissue; host or cells: bovine retina
# T2 sequence (P11541 2-856 limits assumed): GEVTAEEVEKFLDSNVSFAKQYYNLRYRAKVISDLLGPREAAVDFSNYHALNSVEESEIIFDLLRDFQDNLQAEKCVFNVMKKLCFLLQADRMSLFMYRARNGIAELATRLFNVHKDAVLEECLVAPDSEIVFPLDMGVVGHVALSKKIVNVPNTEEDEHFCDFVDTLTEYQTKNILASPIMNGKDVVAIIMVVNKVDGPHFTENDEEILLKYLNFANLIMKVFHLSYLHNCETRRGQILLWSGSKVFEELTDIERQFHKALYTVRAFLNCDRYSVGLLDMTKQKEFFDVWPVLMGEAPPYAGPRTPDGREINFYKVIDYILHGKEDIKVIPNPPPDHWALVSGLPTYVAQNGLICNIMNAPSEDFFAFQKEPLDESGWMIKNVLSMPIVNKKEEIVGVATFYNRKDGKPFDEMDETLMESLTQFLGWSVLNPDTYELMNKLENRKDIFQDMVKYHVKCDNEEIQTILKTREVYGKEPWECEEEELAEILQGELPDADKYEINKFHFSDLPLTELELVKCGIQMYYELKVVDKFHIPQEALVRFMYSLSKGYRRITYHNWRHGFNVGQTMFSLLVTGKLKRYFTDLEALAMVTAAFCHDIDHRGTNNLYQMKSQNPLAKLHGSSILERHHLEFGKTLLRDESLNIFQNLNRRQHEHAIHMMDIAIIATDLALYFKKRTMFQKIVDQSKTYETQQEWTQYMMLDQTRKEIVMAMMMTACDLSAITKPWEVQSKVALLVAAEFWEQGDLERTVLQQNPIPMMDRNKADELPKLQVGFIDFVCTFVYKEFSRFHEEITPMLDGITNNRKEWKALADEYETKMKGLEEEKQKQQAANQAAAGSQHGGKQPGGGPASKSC
# T2 sequence (P23439 2-850 limits assumed): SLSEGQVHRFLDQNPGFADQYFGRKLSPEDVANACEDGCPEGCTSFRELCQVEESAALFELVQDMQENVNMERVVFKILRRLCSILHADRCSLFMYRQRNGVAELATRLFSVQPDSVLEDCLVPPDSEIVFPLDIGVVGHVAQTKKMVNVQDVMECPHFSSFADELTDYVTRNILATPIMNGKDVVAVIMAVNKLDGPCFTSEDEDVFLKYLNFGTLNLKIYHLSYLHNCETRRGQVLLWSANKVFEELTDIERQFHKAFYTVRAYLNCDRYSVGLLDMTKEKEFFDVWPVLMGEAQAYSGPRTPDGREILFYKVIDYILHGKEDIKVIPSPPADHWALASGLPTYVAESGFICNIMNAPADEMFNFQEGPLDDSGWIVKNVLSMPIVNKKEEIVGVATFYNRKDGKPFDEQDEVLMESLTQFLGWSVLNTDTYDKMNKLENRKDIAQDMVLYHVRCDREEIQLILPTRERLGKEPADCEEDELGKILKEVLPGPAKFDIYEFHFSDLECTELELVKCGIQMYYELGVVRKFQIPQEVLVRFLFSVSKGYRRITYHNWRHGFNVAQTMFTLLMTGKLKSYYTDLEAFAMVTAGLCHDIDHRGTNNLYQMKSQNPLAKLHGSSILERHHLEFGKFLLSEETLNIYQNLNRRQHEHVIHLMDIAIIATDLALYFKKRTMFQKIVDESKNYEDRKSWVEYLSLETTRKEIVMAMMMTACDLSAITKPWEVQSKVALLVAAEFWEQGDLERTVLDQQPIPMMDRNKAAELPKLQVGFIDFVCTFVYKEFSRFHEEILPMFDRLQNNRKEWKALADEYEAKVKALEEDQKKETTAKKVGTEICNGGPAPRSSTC
# Description: as §1, §2, §3, §4
# T1 sequence (O76083 whole entry): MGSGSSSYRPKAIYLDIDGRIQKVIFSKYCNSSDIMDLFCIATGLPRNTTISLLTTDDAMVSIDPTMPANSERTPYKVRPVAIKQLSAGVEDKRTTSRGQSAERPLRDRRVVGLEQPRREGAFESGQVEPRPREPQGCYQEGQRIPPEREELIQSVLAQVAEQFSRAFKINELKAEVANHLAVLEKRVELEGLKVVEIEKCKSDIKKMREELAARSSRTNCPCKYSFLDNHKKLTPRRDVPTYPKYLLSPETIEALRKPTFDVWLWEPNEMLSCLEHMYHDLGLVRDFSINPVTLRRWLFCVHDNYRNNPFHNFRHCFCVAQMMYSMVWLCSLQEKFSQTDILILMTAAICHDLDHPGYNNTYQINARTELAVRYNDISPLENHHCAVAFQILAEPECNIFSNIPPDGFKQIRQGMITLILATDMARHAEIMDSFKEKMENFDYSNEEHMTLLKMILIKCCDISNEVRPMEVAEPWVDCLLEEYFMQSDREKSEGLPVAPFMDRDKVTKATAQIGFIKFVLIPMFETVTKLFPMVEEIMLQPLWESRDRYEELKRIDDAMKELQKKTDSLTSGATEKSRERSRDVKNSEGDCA
Ki [1],Ki [2],Compound
> 3.6 µM,> 49 µM,"CC1CCCCC1n1nnc2c(N)ncnc21 (single isomer, unassigned) [Example 191, 3-(cis-2-methylcyclohexyl)-3H-[1,2,3]triazolo[4,5-d]pyrimidin-7-amine]"
> 3.6 µM,> 49 µM,"C[C@@H]1CCC[C@H](c2nnc3c(N)nccn23)C1 [Example 204, 3-[(1S,3R)-3-methylcyclohexyl][1,2,4]triazolo[4,3-a]pyrazin-8-amine]"
> 0.36 µM,> 4.9 µM,"Nc1nccn2c(C3CCCCC3)nnc12 [Example 141, 3-cyclohexyl[1,2,4]triazolo[4,3-a]pyrazin-8-amine]"
> 0.36 µM,> 4.9 µM,Cc1nc(N)c2nnn(C3CCCCC3)c2n1 [Example 4]
> 3.6 µM,> 49 µM,"Nc1ncnc2c1nnn2C1CCCCC1 [Example 3, 3-cyclohexyl-3H-[1,2,3]triazolo[4,5-d]pyrimidin-7-amine]"

# From US20190185479A1, “BICYCLIC NITROGENATED HETEROCYCLIC COMPOUND” (MITSUBISHI TANABE PHARMA CORPORATION, priority 2016, published 2019)
